Laboratory results as given in ChEMBL document CHEMBL5665443, “Enzyme Inhibitor Single Concentration assay results for EUbOPEN Chemogenomics Library” (2024).

Legend:
Conditions in all cases: Hit No
[1] = molecular target: Methyl-CpG-binding domain protein 4 (Homo sapiens) (UniProt O95243);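 further: MBD4 activity read as fluorescence at 594 nm from cleavage and release of a quenched duplex DNA oligonucleotide, with APE1 coupled to incise the strand and raise turnover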
Description: Inhibition of MBD4 by quantifying inhibition of MBD4-mediated cleavage and dissociation of quenched duplex DNA oligonucleotides, measured as fluorescence at 594 nm. To generate a functional strand incision and increase turn-over this assay is coupled to APE1.

[2] = molecular target: T1, Adenine DNA glycosylase (Homo sapiens) (UniProt Q9UIF7);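 further: human MUTYH activity read as 594 nm fluorescence from cleavage and release of a quenched DNA duplex, coupled with APE1 for strand incision, lower signal meaning inhibition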
T1 sequence (whole entry): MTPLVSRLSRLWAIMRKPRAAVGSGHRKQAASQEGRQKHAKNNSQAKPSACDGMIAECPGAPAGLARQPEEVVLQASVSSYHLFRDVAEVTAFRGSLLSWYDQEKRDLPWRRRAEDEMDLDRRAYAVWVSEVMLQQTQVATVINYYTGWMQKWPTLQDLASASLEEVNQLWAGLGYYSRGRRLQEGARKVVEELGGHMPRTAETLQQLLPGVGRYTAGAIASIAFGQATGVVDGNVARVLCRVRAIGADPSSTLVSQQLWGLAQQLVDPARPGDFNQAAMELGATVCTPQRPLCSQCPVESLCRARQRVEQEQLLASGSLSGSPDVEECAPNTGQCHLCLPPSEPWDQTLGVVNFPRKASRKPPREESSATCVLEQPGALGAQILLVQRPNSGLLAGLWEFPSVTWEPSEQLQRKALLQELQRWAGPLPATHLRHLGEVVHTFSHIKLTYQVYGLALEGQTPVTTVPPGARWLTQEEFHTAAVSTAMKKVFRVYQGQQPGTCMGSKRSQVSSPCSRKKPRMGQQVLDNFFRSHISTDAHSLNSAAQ
Description: Inhibition of MUTYH by quantifying inhibition of MUTYH-mediated cleavage and dissociation of quenched duplex DNA oligonucleotides, measured as fluorescence at 594 nm. To generate a functional strand incision and increase turn-over this assay is coupled to APE1.

[3] = molecular target: T2, Endonuclease 8-like 2 (Homo sapiens) (UniProt Q969S2);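 further: fluorescence at 594 nm reports NEIL2 cutting and release of a quenched double-stranded DNA oligo substrate, reduced signal read as inhibition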
T2 sequence (whole entry): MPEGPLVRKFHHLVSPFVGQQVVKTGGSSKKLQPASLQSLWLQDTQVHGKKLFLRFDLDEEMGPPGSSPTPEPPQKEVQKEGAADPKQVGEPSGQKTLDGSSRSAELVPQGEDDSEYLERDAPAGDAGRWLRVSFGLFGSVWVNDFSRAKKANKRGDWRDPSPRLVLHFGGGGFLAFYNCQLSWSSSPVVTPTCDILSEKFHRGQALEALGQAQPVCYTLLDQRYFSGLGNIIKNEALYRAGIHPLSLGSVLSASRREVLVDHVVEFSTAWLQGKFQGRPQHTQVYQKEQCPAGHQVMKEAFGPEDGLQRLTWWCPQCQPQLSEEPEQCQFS
Description: Inhibition of NEIL2 by quantifying inhibition of NEIL2-mediated cleavage and dissociation of quenched duplex DNA oligonucleotides, measured as fluorescence at 594 nm.

[4] = molecular target: T3, Endonuclease III-like protein 1 (Homo sapiens) (UniProt P78549);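 further: enzyme assay tracking NTHL1 cutting and release of a quenched double-stranded DNA oligo substrate, read as fluorescence at 594 nm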
T3 sequence (whole entry): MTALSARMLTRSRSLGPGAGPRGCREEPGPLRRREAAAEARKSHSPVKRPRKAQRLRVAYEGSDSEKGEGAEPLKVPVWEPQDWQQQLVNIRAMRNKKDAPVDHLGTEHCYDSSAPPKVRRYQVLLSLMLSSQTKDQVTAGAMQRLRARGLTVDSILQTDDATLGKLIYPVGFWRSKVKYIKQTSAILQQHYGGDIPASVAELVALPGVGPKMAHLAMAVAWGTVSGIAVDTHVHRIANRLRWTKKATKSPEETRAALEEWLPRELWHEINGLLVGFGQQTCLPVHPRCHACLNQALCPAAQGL
Description: Inhibition of NTHL1 by quantifying inhibition of NTHL1-mediated cleavage and dissociation of quenched duplex DNA oligonucleotides, measured as fluorescence at 594 nm.

[5] = molecular target: N-glycosylase/DNA lyase (Homo sapiens) (UniProt O15527);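 further: OGG1 cleavage of a quenched duplex DNA oligonucleotide, coupled to APE1 for strand incision, read as fluorescence at 594 nm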
Sequence of N-glycosylase/DNA lyase (Homo sapiens) (O15527 whole entry): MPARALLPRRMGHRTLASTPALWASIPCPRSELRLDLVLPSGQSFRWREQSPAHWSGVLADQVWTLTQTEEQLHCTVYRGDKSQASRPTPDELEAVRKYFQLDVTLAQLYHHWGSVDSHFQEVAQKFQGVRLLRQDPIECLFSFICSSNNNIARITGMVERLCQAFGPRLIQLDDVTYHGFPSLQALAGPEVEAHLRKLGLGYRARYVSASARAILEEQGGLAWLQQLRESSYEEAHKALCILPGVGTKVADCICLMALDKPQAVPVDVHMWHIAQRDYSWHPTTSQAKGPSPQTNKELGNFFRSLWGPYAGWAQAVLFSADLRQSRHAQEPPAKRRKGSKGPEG
Description: Inhibition of OGG1 by quantifying inhibition of OGG1-mediated cleavage and dissociation of quenched duplex DNA oligonucleotides, measured as fluorescence at 594 nm. To generate a functional strand incision and increase turn-over this assay is coupled to APE1.

[6] = molecular target: T4, Single-strand selective monofunctional uracil DNA glycosylase (Homo sapiens) (UniProt Q53HV7);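 further: enzymatic SMUG1 assay coupled with APE1, reading fluorescence at 594 nm released when a quenched double-stranded DNA oligonucleotide substrate is cleaved and separated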
T4 sequence (whole entry): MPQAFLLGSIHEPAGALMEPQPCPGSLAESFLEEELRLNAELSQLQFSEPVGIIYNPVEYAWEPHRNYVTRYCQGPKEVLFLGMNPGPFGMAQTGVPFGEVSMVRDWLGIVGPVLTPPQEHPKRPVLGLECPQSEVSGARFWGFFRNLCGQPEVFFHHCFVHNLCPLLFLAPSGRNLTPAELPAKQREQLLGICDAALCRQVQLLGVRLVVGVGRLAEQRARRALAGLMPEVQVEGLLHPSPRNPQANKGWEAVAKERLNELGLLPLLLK
Description: Inhibition of SMUG1 by quantifying inhibition of SMUG1-mediated cleavage and dissociation of quenched duplex DNA oligonucleotides, measured as fluorescence at 594 nm. To generate a functional strand incision and increase turn-over this assay is coupled to APE1.

[7] = molecular target: G/T mismatch-specific thymine DNA glycosylase (Homo sapiens) (UniProt Q13569);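 further: human TDG cleavage of quenched duplex DNA oligonucleotides coupled to APE1, strand release read as fluorescence at 594 nm, inhibition of TDG activity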
Sequence of G/T mismatch-specific thymine DNA glycosylase (Homo sapiens) (Q13569 whole entry): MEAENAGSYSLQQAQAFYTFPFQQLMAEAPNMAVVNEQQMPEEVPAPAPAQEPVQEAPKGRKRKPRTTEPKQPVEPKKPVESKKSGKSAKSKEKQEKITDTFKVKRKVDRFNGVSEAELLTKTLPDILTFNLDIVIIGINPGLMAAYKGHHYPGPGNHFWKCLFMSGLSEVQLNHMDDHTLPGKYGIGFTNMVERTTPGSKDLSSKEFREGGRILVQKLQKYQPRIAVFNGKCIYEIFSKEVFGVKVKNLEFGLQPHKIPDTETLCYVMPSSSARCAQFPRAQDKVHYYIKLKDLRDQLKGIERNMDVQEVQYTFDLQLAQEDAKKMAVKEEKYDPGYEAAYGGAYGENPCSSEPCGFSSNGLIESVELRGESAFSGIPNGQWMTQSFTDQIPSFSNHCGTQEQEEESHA
Description: Inhibition of TDG by quantifying inhibition of TDG-mediated cleavage and dissociation of quenched duplex DNA oligonucleotides, measured as fluorescence at 594 nm. To generate a functional strand incision and increase turn-over this assay is coupled to APE1.

[8] = molecular target: Uracil-DNA glycosylase (Homo sapiens) (UniProt P13051);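 further: UNG excision on a quenched double-stranded DNA oligo probe, with APE1 added for strand incision and turnover, read as fluorescence at 594 nm as strands separate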
Sequence of Uracil-DNA glycosylase (Homo sapiens) (P13051 whole entry): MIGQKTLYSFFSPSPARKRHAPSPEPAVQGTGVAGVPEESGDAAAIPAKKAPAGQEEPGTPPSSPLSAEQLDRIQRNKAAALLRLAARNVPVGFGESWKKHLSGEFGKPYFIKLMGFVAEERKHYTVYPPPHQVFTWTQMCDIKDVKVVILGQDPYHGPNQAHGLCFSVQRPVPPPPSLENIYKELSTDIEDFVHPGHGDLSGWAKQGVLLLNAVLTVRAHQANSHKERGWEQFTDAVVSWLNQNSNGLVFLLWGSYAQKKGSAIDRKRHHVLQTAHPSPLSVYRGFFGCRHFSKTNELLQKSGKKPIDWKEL
Description: Inhibition of UNG by quantifying inhibition of UNG-mediated cleavage and dissociation of quenched duplex DNA oligonucleotides, measured as fluorescence at 594 nm. To generate a functional strand incision and increase turn-over this assay is coupled to APE1.

Sequence of Methyl-CpG-binding domain protein 4 (Homo sapiens) (O95243 whole entry, the tested form may be a part): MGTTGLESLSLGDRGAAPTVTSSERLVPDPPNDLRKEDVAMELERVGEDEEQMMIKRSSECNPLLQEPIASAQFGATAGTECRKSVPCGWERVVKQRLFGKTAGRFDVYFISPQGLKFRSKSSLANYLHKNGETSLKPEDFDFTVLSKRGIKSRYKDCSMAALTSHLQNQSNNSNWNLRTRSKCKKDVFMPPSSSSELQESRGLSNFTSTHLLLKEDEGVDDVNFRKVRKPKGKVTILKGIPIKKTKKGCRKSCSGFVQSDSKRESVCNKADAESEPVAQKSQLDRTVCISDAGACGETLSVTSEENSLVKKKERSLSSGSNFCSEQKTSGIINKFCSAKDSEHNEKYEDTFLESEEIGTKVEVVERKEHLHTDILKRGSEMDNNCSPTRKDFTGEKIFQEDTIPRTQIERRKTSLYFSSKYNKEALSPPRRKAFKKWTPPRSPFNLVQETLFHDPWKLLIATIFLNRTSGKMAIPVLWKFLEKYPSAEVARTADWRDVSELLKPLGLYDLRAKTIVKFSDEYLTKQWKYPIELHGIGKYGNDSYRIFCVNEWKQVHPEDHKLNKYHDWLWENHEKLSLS

SMILES	inhibition ([1]; Compound Concentration 10.0 uM) [%]	inhibition ([2]; Compound Concentration 10.0 uM) [%]	inhibition ([3]; Compound Concentration 10.0 uM) [%]	inhibition ([4]; Compound Concentration 10.0 uM) [%]	inhibition ([5]; Compound Concentration 10.0 uM) [%]	inhibition ([6]; Compound Concentration 10.0 uM) [%]	inhibition ([7]; Compound Concentration 10.0 uM) [%]	inhibition ([8]; Compound Concentration 10.0 uM) [%]	inhibition ([1]; Compound Concentration 1.0 uM) [%]	inhibition ([2]; Compound Concentration 1.0 uM) [%]	inhibition ([4]; Compound Concentration 1.0 uM) [%]	inhibition ([6]; Compound Concentration 1.0 uM) [%]	inhibition ([7]; Compound Concentration 1.0 uM) [%]	inhibition ([8]; Compound Concentration 1.0 uM) [%]	inhibition ([3]; Compound Concentration 1.0 uM) [%]	inhibition ([5]; Compound Concentration 1.0 uM) [%]
Cn1cncc1[C@](O)(COc1ccc(C#N)cc1-c1ccc(OC(F)(F)F)cc1)c1ccc(C#N)cc1	62	-9.34	0.531	10.6	7.95	-2.99	37.9	-1.26	–	–	–	–	–	–	–	–
CN1CCN(C(=O)C(C)(C)c2ccc(C(=O)Nc3cn4cc(-c5cc(C(C)(C)C)cc(C(C)(C)C)c5)ccc4n3)cc2)CC1	-6.81	–	-7.12	-6.55	18.8	11.1	15.4	2.56	-6.71	-8.55	-0.61	20	41	3.16	–	–
COc1ccc(COc2ccc(Cc3cnc(N)nc3N)cc2OC)cc1	24.9	-3.46	-2.46	-8.98	6.26	6.38	46.5	-0.384	–	–	–	–	–	–	–	–
O=S(=O)(c1ccccc1)N(CC(F)(F)F)c1ccc(C(O)(C(F)(F)F)C(F)(F)F)cc1	64.2	11.1	-6.61	-5.89	22.5	0.186	50.9	-2.07	–	–	–	–	–	–	–	–
O=C(O)Cc1cc(I)c(Oc2ccc(O)c(I)c2)c(I)c1	63.6	-6.77	-3.55	15.2	32.3	30.4	40.4	3.85	–	–	–	–	–	–	–	–
CCn1c(=O)c(C)cn(Cc2nnc(-c3ccc(F)c(OC)c3F)s2)c1=O	72.7	5.03	-5.85	-4.57	7.36	17.9	20.6	2.54	–	–	–	–	–	–	–	–
CC(=O)N1CCC(c2ccc(C(=O)NC3=NCCN3)cc2C(F)(F)F)CC1	57	6.4	6.91	13.2	-3.66	11.2	48.7	-0.0445	–	–	–	–	–	–	–	–
COC(=O)c1sccc1S(=O)(=O)Nc1ccc(Nc2ccccc2)cc1OC	58	-9.5	1.55	-7.86	3.38	18.2	40.6	0.459	–	–	–	–	–	–	–	–
C[C@@H]1CCN(C(=O)CC#N)C[C@@H]1N(C)c1ncnc2[nH]ccc12	–	–	–	–	–	–	–	–	20.6	9.35	10.6	24.1	61.6	6.67	-1.11	4.23
Cc1cc(OC2CCS(=O)(=O)CC2)cc(C)c1-c1cccc(COc2ccc(CCC(=O)O)c(F)c2)c1	58.2	3.94	-9.42	-0.63	48.4	12.1	45.8	3.54	–	–	–	–	–	–	–	–
CN1C(=O)[C@@H](N2CCc3cn(Cc4ccccc4)nc3C2=O)COc2ccccc21	–	–	–	–	–	–	–	–	21.1	5.54	1.82	12.5	42.8	2.22	-5.67	5.71
CN(C)c1ncnc(-c2ccc3nc(Nc4cc(CN5CCN(C(=O)CC(F)(F)F)CC5)ccn4)[nH]c3c2)c1Cl	18	-7.96	-5.65	-0.841	9.13	12.7	65	1.3	–	–	–	–	–	–	–	–
CO[C@@H](C)c1c(Nc2ccc([C@H](N(C)C(=O)C3CCS(=O)(=O)CC3)C(F)(F)F)cc2)cnc2cc(Cl)nn12	77.6	-6.71	5.63	-3.92	-4	-7.05	48.6	-1.74	–	–	–	–	–	–	–	–
O=C(Nc1ccc(-n2nc(-c3cccnc3)cc2C(F)(F)F)cn1)c1ccc(-c2ccccc2)c(F)c1	–	–	–	–	–	–	–	–	59.3	-4.64	0.685	24.9	56.1	6.15	4.61	18.5
CCOC(=O)N1CCC(CN(Cc2ccc(Cl)cc2)Cc2ccc([N+](=O)[O-])s2)C1 (stereo unspecified)	55.4	-8.96	-4.57	7.92	16.5	16.2	97.5	-1.49	–	–	–	–	–	–	–	–
O=C(O)CCCc1cc2cc(Cl)ccc2n1S(=O)(=O)c1ccc2ncsc2c1	58.8	-4.2	2.32	1.34	5.59	23.9	99	-3.11	–	–	–	–	–	–	–	–
O=C(N1CCS(=O)(=O)CC1)N1C[C@H](c2ccc(OC(F)(F)F)cc2)C[C@H](c2nc(C3CC3)no2)C1	55.6	1.64	-9.67	-9.83	1.66	9.87	56.4	-2.41	–	–	–	–	–	–	–	–
